Where two headings read alike, the source gives them in different places.
Assays:
[1] = system: PD-1 expression on CD3+CD4+ cells; assay: PD-1 expression on CD4+ T-cells in PBMC, flow cytometry; format: cell-based, human
Method: For cytokine and PD-1 assessment experiments freshly isolated peripheral blood mononuclear cell (PBMC) purchased from the Human Immunology Core Facility of The University of Pennsylvania School of Medicine (Philadelphia, PA) were cultured in RPMI medium supplemented with 10 % FBS overnight. Some cultures were treated with SP (10 µM) aprepitant (10 µM) or DMSO (0.001 %, vehicle for aprepitant). Cytokine concentrations were measured in supernatants using multiplex assay 24 h after SP/aprepitant treatment (see below). For PD-1 expression SP and aprepitant were added at day 0 and PD-1 expression was monitored daily for up to 8 days using flow cytometry.
Fig. 6 Aprepitant blocks SP induced PD-1 expression on CD4+ T-cells. PBMC were treated for 7 days with SP and aprepitant as indicated. PD-1 expression was measured by flow cytometry on CD3+CD4+ cells and expressed as percentage of PD-1 positive cells. a Results from representative experiment are shown. First two columns show gaiting strategy. […] Median (spread): control 14.7 (11.1), SP treated 38.4 (60.6), SP + aprepitant treated 7.8 (6.0) TEXT PRINTED IN THE PICTURE: (a) SP: PD1+ 67.1 | (a) SP + aprepitant: PD1+ 9.53 DOUBTS OF THE COPYIST ABOUT THIS PICTURE: SP + aprepitant, PD1+ 9.53: the sign after PD1 looks like '+' or '−' because it touches the gate line / SP + aprepitant, 9.53: small print, so the digits 9, 5 and 3 are not fully certain / The rows 'no staining' (PD1+ 0.079) and 'control' (PD1+ 11.4) were left out because they are not substances

SIVmac251 = assay: SIV infectivity study, plasma viral load; format: in vivo, rhesus macaques (Macaca mulatta)
Method: (§1) For infectivity studies, eight male rhesus macaques were used. Animals were infected intravenously with 50 ng p27 of SIV. Following infection four animals were treated with aprepitant once daily dosing of 125 mg aprepitant administered orally for a year and four infected animals were left untreated. Aprepitant (commercial capsule contents) was mixed and co-administered with various food preparations to ensure dosing compliance. Food preparations included peanut butter, marshmallow cream and honey, disguised in non-citrus fruit. While formal stability and delivery experiments were not conducted, pilot bioavailability studies confirmed the robustness of aprepitant exposures following food co-administration. The improved bioavailability with food-based dosing in conjunction with oral aprepitant is consistent with preclinical experiments which project simulated exposures based on the commercial nanosized aprepitant formulation. In this evaluation, in silico model predictions were similar to observed in vivo pharmacokinetic data in the fed state; other studies have shown the benefit of complexation strategies to enhance aprepitant solubility/dissolution [30, 31].
Blood was collected for PK sampling on days 1, 7 and 14 and trough samples were collected prior to dosing on days 3, 5, 7, 11 and 13. […] Videotaped recordings were analyzed using Observer XT® (Noldus IT). […]

NK1R = system: NK1R; design: method as in PMID 12562139, PMID 15121485; conditions: 165 mg dose, PET; cited from earlier work
HIV-1 Bal = assay: HIV infection of monocyte-derived macrophages (MDM) ex vivo, HIV gag mRNA by real time RT-PCR; format: cell-based
Method: Blood samples were collected from the antecubital vein and monocytes were isolated as described below.
For HIV infectivity experiments PBMC were isolated from freshly collected blood samples using Ficoll-Paque (GE Healthcare, Uppsala, Sweden) gradient. Monocytes were purified by adhesion as described [26, 27] and cultured in 48-well plates at a density of 0.25 × 10^6/0.5 ml/well in DMEM supplemented with 10 % FBS for 7 days before HIV-1 infection. Macrophages from each subject were exposed to four experimental conditions (none, 1, 5 and 10 µM of aprepitant). 7-day-cultured MDM were incubated with aprepitant for 2 h before infection with HIV-1 Bal (NIH AIDS Reagent Program), 5 ng/well based on p24 antigen assay, corresponding to a MOI of 0.02 determined using MAGI cells expressing CD4 and CCR5 (NIH AIDS Reagent Program). Cells were incubated with virus overnight, and then extensively washed to remove unbound virus. The culture medium and the aprepitant were replaced twice weekly. At day 7 post HIV infection, cellular RNA was extracted from the MDM for assessment of HIV gag mRNA expression using real time RT-PCR assays.
Total RNA was extracted from MDM cells using RNeasy kit (Qiagen), and the potential DNA contamination was eliminated by on-column DNase digestion as instructed by the manufacturer (Qiagen). Total RNA (1 µg) was reverse transcribed using AffinityScript QPCR cDNA Synthesis kit ([sequence], Cedar Creek, TX) with random primer as instructed by the manufacture. 1 µl of the resulting cDNA was used as a template for real-time PCR amplification. […] Corresponding fragments of assayed genes cloned in pGEM-T vector (Promega) were used to generate standard curves.
Following differentiation for 7 days MDM were infected with HIV Bal. Macrophages from each subject were exposed to all four experimental conditions as indicated (1, 5 and 10 μM concentrations of aprepitant). Control, HIV infected MDM were treated with aprepitant vehicle, 0.001 % DMSO. RNA was collected 7 days after infection and assayed for expression of HIV GAG by real time RT PCR using the GAPDH housekeeping gene for normalization. GAG expression in control (non-treated) cultures were designated as 100 %; *p < 0.0001 between all groups including control were obtained through one-way ANOVA with post-test analysis by Bonferroni’s Multiple Comparison Test indicating significant difference between all groups in pair wise comparison. b Aprepitant added to DMEM 10 % FBS media or MDM cultures at a concentration of 1 μM (0.53 μg/ml) on day 0 and measured on days 0, 1, 2, 3 and 7. Results are presented as mean ± SD for three independent experiments

in vivo = conditions: male, rhesus monkey
Method: A pilot study in two groups of three male Rhesus macaques (Macaca mulatta) was conducted to assess the exposure attained following once daily dosing of 80 and 125 mg aprepitant administered orally for 14 days (n = 3 per dose group). The 80 and 125 mg doses correlate with the human doses recommended for CINV patients (125 mg orally 1 h prior to chemotherapy treatment (day 1) and 80 mg orally once daily in the morning on days 2 and 3). On a weight basis these doses represent approximately 8 and 12.5 mg/kg (weight range, 7–12 kg for the rhesus) compared to 1.14 and 1.79 mg/kg human doses (assuming a 70 kg person). […] Blood was collected for dense PK sampling on days 1, 7 and 14 and trough samples were collected prior to dosing on days 3, 5, 7, 11 and 13.
Blood was collected for PK sampling on days 1, 7 and 14 and trough samples were collected prior to dosing on days 3, 5, 7, 11 and 13. Viral loads were assessed at 2 and 4 weeks after infection and monthly thereafter. […] Behavioral data were collected using video cameras installed on walls opposite the caging. Videotaping was scheduled to avoid disruptions in daily feedings, routine husbandry and research procedures. Data were collected pre-infection, 2 and 4 weeks post-infection and monthly thereafter. Videotaped recordings were analyzed using Observer XT® (Noldus IT). Animals were sacrificed and necropsied after 1 year.

[2] = design: species or system Rhesus macaques; conditions: rhesus monkey, in vivo
Method: as §1, with “Following infection four animals were treated with aprepitant once daily dosing of 125 mg aprepitant administered orally for a year and four infected animals were left untreated.” left out, “31]. […] Videotaped recordings were analyzed using Observer XT® (Noldus IT). Animals were sacrificed and necropsied after 1 year.” for “31].”

[3] = system: CD163 cleavage in human monocytes; assay: sCD163 release from human monocytes, ELISA; format: cell-based; conditions: aprepitant 10 μM 30 min before SP 5 μM 60 min, p = 0.004
Method: sCD163 was measured by ELISA (Trillium Diagnostics, Brewer, Maine, USA) according to manufacturer’s recommendations.
Fig. 7 SP induces cleavage of CD163 in monocytes. sCD163 was measured by ELISA in the supernatant of freshly isolated human monocytes treated with SP and aprepitant as indicated. a Time course of cells treated with varying doses of SP as indicated. *p < 0.001 control versus 5 and 10 μM of SP. b Cells were pre-incubated with aprepitant (10 μM) for 30 min and then treated with SP (5 μM) for 60 min. *p < 0.001 SP versus control, p = 0.004 SP versus SP + aprepitant. Results are presented as mean ± SD from three independent experiments

## C[C@@H](O[C@H]1OCCN(Cc2n[nH]c(=O)[nH]2)[C@H]1c1ccc(F)cc1)c1cc(C(F)(F)F)cc(C(F)(F)F)c1 [aprepitant]
[1]; SP + aprepitant treated, 7 days, five experiments, control 14.7 (11.1)
  percentage of PD-1 positive CD4 cells, median (spread): 7.8 (6.0) %
[1]; aprepitant with SP
  effect on SP induced PD-1 expression: blocked
SIVmac251; 125 mg once daily oral for 12 months, SIV-infected rhesus, weeks 12-52
  reduction of viral load: approximately tenfold
SIVmac251; 125 mg/day oral, 3–12 month observation period
  reduction in plasma levels of viral RNA versus non-treated controls: 1 log
NK1R
  receptor occupancy: 97–99%
HIV-1 Bal; Human immunodeficiency virus 1, BAL, Macrophage, read-out: free drug IC50 concentration
  IC50: ~0.00265 µg/mL
HIV-1 Bal; Human immunodeficiency virus 1, BAL, Macrophage, read-out: total IC50 concentration
  IC50: 2.65 µg/mL
HIV-1 Bal; Human immunodeficiency virus 1, Macrophage, 168 h, human MDM, HIV-1 Bal, gag mRNA day 7, total concentration in DMEM 10 % FBS, read-out: IC50 (ED50 in abstract) for inhibition of HIV infection in MDM
  IC50: ~5 µM
HIV-1 Bal; Human immunodeficiency virus 1, Macrophage, human MDM, HIV-1 Bal, total concentration, read-out: IC90 for inhibition of HIV infection in MDM
  IC90: ~10 µM
In vivo
  Kp: 0.0005 to 0.008
  decline in trough exposure between days 13 and 14 (extent of induction): approximately 32.5%
  trough plasma concentration reaches steady state: ≤ 10 days
[2]
  systemic and neuropathology, treated versus untreated: no differences
[3]
  effect on SP induced sCD163 release: inhibited
